Data on two compounds can be found in publication PMC4076210, “Discovery of Novel AKT Inhibitors with Enhanced Anti-Tumor Effects in Combination with the MEK Inhibitor” (PLoS ONE, 2014).

Assay in all cases: Kinase panel
Format in all cases: biochemical

One test deals with T1, CK1δ(h) (Homo sapiens, UniProt P48730).
T1 construct: purchased Millipore KinaseProfiler

For another test, the target named is T2, MLK1(h) (Homo sapiens, UniProt P80192).
T2 construct: purchased Millipore KinaseProfiler

The next test addresses T3, PASK(h) (Homo sapiens, UniProt Q96RG2).
T3 construct: purchased Millipore KinaseProfiler

In the next test the target is T4, MSK2(h) (Homo sapiens, UniProt O75676).
T4 construct: purchased Millipore KinaseProfiler

Another test deals with T5, JNK2α2(h) (Homo sapiens, UniProt P45984).
T5 construct: purchased Millipore KinaseProfiler

A further test deals with T6, MELK(h) (Homo sapiens, UniProt Q14680).
T6 construct: purchased Millipore KinaseProfiler

The target in a further test is T7, PKCμ(h) (Homo sapiens, UniProt Q15139).
T7 construct: purchased Millipore KinaseProfiler
T7 sequence (Q15139 1-912): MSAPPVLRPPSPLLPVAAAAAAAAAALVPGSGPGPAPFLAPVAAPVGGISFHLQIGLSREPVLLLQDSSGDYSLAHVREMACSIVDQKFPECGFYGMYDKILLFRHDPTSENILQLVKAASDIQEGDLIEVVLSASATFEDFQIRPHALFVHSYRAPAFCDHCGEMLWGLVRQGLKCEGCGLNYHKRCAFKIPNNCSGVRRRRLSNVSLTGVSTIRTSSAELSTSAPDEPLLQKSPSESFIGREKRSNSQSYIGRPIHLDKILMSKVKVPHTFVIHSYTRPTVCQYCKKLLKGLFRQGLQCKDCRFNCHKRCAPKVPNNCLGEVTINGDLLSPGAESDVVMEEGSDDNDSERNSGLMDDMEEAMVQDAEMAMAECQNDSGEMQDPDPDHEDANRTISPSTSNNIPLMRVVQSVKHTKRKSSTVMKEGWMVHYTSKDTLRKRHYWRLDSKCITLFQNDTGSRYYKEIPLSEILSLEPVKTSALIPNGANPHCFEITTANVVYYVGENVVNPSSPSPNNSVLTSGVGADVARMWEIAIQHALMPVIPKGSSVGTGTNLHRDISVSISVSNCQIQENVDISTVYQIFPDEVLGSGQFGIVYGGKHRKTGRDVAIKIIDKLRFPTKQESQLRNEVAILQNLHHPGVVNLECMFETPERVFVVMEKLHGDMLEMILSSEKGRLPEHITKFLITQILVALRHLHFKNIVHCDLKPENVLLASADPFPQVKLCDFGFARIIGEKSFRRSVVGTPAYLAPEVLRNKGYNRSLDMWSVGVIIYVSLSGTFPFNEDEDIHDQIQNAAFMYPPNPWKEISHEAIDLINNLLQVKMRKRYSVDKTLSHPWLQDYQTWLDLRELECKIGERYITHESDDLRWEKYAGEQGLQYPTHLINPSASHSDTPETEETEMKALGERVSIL

For another test, the target named is T8, ZAP-70(h) (Homo sapiens, UniProt P43403).
T8 construct: purchased Millipore KinaseProfiler
T8 sequence (P43403 1-619): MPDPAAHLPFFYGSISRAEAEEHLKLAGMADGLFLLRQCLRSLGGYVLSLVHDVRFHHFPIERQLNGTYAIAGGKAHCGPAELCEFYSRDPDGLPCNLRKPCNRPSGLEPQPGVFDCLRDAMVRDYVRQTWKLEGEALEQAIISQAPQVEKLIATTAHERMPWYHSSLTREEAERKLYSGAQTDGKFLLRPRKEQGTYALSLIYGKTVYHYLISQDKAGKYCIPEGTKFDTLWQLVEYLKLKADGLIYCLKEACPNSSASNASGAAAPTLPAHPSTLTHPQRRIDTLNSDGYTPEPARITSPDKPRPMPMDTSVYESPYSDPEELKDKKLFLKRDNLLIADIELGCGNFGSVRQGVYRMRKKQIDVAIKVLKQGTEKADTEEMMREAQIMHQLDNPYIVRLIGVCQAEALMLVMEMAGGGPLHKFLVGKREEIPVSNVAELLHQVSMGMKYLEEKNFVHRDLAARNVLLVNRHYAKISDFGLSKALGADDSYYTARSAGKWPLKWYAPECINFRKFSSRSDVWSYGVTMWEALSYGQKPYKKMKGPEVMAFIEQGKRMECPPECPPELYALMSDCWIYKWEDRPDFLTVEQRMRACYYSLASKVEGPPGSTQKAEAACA

The target in a further test is T9, Tie2(h) (Homo sapiens, UniProt Q02763).
T9 construct: purchased Millipore KinaseProfiler

The next test deals with T10, Rsk3(h) (Homo sapiens, UniProt Q15349).
T10 construct: purchased Millipore KinaseProfiler

Where two headings read alike, the source gives them in different places.

T10 sequence (Q15349 whole entry): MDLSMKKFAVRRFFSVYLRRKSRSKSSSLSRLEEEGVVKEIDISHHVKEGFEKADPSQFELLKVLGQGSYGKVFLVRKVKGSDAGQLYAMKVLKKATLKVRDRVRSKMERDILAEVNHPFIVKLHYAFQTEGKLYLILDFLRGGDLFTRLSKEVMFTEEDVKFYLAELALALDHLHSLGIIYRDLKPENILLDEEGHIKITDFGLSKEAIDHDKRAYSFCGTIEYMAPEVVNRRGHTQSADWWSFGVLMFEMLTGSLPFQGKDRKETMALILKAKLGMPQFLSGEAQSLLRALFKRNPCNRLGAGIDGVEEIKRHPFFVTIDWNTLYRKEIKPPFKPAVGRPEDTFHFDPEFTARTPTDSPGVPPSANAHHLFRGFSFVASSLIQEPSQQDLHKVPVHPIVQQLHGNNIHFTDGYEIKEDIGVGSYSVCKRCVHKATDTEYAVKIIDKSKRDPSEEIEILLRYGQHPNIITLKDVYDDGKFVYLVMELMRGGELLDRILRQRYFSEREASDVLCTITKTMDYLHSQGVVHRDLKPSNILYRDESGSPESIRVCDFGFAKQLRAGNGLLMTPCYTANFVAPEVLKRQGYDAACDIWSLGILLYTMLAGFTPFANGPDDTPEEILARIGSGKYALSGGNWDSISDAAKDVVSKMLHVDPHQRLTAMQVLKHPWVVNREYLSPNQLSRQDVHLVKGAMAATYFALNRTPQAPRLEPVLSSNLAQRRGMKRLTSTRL
T5 sequence (P45984 whole entry): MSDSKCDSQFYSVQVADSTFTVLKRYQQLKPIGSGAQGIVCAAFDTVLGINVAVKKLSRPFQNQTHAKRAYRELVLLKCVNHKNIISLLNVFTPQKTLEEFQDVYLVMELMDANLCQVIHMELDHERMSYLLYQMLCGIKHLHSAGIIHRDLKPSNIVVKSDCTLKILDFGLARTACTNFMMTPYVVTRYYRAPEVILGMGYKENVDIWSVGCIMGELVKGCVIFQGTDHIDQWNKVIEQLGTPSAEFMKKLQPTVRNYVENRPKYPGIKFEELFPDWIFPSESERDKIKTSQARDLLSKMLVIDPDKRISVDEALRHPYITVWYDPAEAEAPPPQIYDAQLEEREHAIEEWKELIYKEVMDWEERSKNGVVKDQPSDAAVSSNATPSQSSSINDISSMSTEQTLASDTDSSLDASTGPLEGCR
T3 sequence (Q96RG2 whole entry): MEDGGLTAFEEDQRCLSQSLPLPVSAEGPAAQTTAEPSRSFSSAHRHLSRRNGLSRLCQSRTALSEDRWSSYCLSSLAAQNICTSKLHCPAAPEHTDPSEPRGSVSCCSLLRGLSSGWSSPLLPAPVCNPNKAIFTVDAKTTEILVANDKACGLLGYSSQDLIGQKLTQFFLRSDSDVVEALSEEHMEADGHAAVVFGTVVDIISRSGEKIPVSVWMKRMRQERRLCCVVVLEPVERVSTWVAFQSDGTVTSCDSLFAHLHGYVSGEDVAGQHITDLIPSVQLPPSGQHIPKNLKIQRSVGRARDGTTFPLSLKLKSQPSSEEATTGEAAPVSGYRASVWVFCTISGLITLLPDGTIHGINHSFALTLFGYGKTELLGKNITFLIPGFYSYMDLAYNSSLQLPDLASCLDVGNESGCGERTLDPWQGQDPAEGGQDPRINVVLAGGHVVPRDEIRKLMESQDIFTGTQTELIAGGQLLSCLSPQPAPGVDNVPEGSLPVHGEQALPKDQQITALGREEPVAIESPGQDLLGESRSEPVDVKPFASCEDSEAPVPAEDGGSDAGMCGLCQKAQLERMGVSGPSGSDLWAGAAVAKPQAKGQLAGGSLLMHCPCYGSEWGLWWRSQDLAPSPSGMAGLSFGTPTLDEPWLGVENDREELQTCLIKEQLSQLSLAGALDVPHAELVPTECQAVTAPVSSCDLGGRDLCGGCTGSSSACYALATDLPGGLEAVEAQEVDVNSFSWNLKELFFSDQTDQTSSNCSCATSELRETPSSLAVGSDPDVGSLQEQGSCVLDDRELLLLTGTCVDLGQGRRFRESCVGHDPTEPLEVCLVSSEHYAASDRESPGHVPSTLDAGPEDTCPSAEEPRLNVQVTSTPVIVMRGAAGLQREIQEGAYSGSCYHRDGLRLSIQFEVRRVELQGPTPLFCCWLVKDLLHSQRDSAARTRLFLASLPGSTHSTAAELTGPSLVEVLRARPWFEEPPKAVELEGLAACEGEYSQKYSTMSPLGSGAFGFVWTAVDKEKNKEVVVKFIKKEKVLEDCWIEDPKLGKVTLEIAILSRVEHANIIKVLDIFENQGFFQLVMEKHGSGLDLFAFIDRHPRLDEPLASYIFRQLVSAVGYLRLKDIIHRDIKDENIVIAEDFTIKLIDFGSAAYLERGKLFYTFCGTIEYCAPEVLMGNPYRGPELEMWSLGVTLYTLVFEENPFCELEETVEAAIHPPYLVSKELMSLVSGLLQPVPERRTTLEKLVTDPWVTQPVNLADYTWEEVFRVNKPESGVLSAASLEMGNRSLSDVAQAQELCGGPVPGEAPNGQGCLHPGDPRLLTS
T1 sequence (P48730 whole entry): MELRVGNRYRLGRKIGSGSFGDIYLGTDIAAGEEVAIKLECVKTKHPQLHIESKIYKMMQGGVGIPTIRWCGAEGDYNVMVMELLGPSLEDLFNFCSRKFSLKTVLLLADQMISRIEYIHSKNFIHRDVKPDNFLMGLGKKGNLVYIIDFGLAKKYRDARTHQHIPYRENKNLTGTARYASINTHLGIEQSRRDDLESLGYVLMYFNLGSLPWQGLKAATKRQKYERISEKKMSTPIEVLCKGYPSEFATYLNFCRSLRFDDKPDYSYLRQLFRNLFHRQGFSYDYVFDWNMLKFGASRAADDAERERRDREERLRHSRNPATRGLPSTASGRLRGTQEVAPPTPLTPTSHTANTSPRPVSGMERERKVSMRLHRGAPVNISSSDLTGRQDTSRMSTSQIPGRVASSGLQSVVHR
T6 sequence (Q14680 whole entry): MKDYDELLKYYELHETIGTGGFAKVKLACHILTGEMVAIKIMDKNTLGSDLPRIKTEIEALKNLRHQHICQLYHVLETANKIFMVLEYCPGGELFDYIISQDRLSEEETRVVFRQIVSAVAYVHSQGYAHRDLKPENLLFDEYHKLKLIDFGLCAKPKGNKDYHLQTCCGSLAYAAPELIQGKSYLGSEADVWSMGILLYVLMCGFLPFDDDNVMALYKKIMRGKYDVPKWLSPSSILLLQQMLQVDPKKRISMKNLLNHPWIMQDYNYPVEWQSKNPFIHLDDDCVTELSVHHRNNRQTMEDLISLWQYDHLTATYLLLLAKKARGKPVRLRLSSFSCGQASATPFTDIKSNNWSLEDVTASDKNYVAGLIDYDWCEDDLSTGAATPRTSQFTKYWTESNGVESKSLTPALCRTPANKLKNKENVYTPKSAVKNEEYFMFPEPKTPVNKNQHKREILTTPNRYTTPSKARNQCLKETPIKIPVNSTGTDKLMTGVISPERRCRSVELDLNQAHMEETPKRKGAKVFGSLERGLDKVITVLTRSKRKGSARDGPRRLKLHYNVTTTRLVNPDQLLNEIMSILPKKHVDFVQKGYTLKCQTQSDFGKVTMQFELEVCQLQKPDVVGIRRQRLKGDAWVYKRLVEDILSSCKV
T9 sequence (Q02763 23-1124): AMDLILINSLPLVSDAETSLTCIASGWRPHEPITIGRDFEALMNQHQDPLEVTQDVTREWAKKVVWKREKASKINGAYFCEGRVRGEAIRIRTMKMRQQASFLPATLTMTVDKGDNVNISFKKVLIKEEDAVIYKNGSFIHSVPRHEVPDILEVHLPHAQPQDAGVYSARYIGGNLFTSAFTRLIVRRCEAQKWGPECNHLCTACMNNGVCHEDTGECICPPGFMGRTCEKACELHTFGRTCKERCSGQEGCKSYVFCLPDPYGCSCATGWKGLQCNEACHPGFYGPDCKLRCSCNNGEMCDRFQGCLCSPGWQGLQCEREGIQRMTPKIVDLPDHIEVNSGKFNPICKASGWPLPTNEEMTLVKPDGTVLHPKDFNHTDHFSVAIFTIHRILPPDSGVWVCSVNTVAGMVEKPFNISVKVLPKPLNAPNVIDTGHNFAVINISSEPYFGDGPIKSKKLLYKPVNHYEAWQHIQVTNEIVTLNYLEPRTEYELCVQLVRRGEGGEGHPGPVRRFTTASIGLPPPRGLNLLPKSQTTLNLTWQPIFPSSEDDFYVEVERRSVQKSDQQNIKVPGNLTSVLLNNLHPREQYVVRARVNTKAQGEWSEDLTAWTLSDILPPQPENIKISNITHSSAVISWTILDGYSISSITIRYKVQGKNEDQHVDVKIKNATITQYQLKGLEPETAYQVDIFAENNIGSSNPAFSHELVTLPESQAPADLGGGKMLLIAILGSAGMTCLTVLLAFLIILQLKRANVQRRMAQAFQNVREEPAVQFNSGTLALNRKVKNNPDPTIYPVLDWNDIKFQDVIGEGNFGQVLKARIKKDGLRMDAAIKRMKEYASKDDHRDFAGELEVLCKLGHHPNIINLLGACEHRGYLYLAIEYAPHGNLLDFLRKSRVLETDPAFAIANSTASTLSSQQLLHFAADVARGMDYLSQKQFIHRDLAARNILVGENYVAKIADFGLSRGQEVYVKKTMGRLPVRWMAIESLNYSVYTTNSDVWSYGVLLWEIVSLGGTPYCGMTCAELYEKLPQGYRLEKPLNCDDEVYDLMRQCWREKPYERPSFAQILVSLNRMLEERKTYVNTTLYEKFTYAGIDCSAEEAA

With `Cn1ncc(Cl)c1-c1cc(C(=O)N[C@H](CN)Cc2ccc(F)c(F)c2)oc1Cl` [GSK2141795], the inhibition at 0.5 µM at CK1δ(h) (0.5 µM, read-out: % Inhibition) is -2%; on MLK1(h) (0.5 µM, read-out: % Inhibition) it was -14%; on PASK(h) (0.5 µM, read-out: % Inhibition), 11%; at MSK2(h) (0.5 µM, read-out: % Inhibition) it was 98%; on JNK2α2(h) (0.5 µM, read-out: % Inhibition) it was -15%; on MELK(h) (0.5 µM, read-out: % Inhibition), 80%. Besides, the inhibition at 0.5 µM is 37% at PKCμ(h) (0.5 µM, read-out: % Inhibition); -23% on ZAP-70(h) (0.5 µM, read-out: % Inhibition); -6% on Tie2(h) (0.5 µM, read-out: % Inhibition); 51% at Rsk3(h) (0.5 µM, read-out: % Inhibition). The inhibition at 10 µM at CK1δ(h) (10 µM, read-out: % Inhibition) is 63%; at MLK1(h) (10 µM, read-out: % Inhibition), 45%; on PASK(h) (10 µM, read-out: % Inhibition), 49%; on MSK2(h) (10 µM, read-out: % Inhibition), 102%; on JNK2α2(h) (10 µM, read-out: % Inhibition), -23%; at MELK(h) (10 µM, read-out: % Inhibition) it was 97%. The inhibition at 10 µM is 91% at PKCμ(h) (10 µM, read-out: % Inhibition); -24% at ZAP-70(h) (10 µM, read-out: % Inhibition); 9% at Tie2(h) (10 µM, read-out: % Inhibition); 94% on Rsk3(h) (10 µM, read-out: % Inhibition).
Regarding `Cn1ncc(Cl)c1-c1cc(C(=O)N[C@H](CN)Cc2cccc(F)c2)sc1Cl` [GSK2110183], the inhibition at 0.5 µM was -1% against CK1δ(h); -8% on MLK1(h); 4% at PASK(h); 85% against MSK2(h); -15% on JNK2α2(h); 79% against MELK(h). The inhibition at 0.5 µM is 27% against PKCμ(h), 8% on ZAP-70(h), -56% at Tie2(h) and 35% on Rsk3(h). The inhibition at 10 µM was 49% against CK1δ(h); 11% on MLK1(h); 45% at PASK(h); 97% against MSK2(h); -13% on JNK2α2(h); 97% against MELK(h). In addition, the inhibition at 10 µM against PKCμ(h) is 81%; at ZAP-70(h), -2%; at Tie2(h), -10%; at Rsk3(h), 89%.

What is called inhibition is the drop in the measured response relative to a control, in per cent.
